Assay results: PubChem BioAssay AID1963963 (Molecular Pharmacology Branch, DTP, NCI, 2024)

Tested on: 958667-338-R-J2-PDC tumor spheroids viability
Assay: Anticancer human tumor 958667-338-R-J2-PDC patient-derived colon adenocarcinoma cell line growth inhibition [PI3K]
Conditions: spheroids with HUVEC and MSC; for IC50: curve of first compound; for viability, T/C: stronger effect = lower value
Text: Combinatorial screen of targeted agents with the PI3K inhibitors inavolisib, alpelisib, duvelisib, and copanlisib in multi-cell type tumor spheroids
A high-throughput screen of multi-cell type tumor spheroids was designed to identify active combinations of targeted small molecules and PI3K pathway inhibitors. Complex spheroids include a stromal component modeled by human endothelial cells (HUVEC) and fibroblasts modeled by human mesenchymal stem cells (MSCs). The concentration ranges selected for each drug and investigational agent were based upon clinically achievable concentrations if the clinical Cmax of the agent was known.
Compounds. The drugs and investigational agents: inavolisib (NSC800729), alpelisib (NSC765974), duvelisib (NSC772469), copanlisib (NSC816437), ipatasertib (NSC767898), afuresertib (NSC778305), talazoparib (NSC767125), sapanisertib (NSC764658), selumetinib (NSC741078), tovorafenib (DAY101, NSC766906), vemurafenib (NSC761431), ravoxertinib (NSC781343), sotorasib (NSC818433), MRTX1133 (NSC 836407), abemaciclib (NSC 768073), palbociclib (NSC758247), venetoclax (NSC 766270), SY5609 (NSC837396), enzalutamide (NSC755605), and darolutamide (NSC825331), were obtained from the National Cancer Institute (NCI) Developmental Therapeutics Program Chemical Repository. The FDA-approved anticancer drug set is available from the NCI Developmental Therapeutics Program. […] The stock solutions were prepared in dimethyl sulfoxide (DMSO, Sigma-Aldrich, St. Louis, MO, cat. D2650) at 800-fold the tested concentration and stored at -70 degrees C prior to their use. All drugs and investigational agents were tested over a range starting from a high concentration at or near the clinical Cmax and decreasing in half-log increments. If the clinical Cmax for an agent had not been determined, the highest concentration tested was 10 microM.
Cell Culture. All cells were maintained in an incubator at 37 degrees C and 5% CO2 with 95% humidity. The PDC lines were cultured according to standard operating procedures established by the NCI PDMR (https://pdmr.cancer.gov/sops/default.htm). All PDCs were thawed and cultured in Matrigel-coated flasks prepared with a working solution of 1X Ham's F-12 nutrient mix, without supplementation (Invitrogen, Waltham, MA, cat. 11765054), 100 U/mL penicillin-streptomycin (Invitrogen, cat. 15140122), and 2.5% Matrigel (Corning Inc., Corning, NY, cat. 354248) for the first three passages. The 354836-022-R-J1-PDC, 475296-252-R-J1-PDC, and 997726-040-R-J2-PDC lines were cultured in 6A media, which includes advanced DMEM/F-12 (Thermo Fisher Scientific, cat. 12634028), 10 mM HEPES (Thermo Fisher Scientific, cat. 15630080), 1X GlutaMAX supplement (Thermo Fisher Scientific, cat. 35050061), 0.1 mg/mL primocin (InvivoGen, San Diego, CA, cat. ant-pm-2), 10% defined fetal bovine serum, heat inactivated (HyClone Laboratories Inc., Logan, UT, cat. SH30070.03HI), 50% L-WRN conditioned media (ATCC, cat. CRL-3276), 1.25 mM N-Acetyl-L-cysteine (Sigma-Aldrich, cat. A9165), 10 mM nicotinamide (Sigma-Aldrich, cat. N0636), 1X B-27 supplement (Thermo Fisher Scientific, cat. 17504044), 1X N-2 supplement (Thermo Fisher Scientific, cat. 17502048), and 10 microM Y-27632 dihydrochloride (Tocris Bioscience, Bristol, United Kingdom, cat. 1254). The 624824-186-R-J2-PDC line was cultured in 6C/Colon 1B media, which includes all 6A media components plus 50 ng/mL human EGF recombinant protein (Thermo Fisher Scientific, cat. PHG0311). […]
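Further: spheroids exposed to compounds for seven days before readout.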

## Cn1cnc2c(F)c(Nc3ccc(Br)cc3Cl)c(C(=O)NOCCO)cc21 + CC(Nc1ccc2c(c1)OCCn1cc(N3C(=O)OCC3C(F)F)nc1-2)C(N)=O
Second compound 0.00316 µM
  IC50: 436 nM
Second compound 0.01 µM
  IC50: 358 nM
Second compound 0.0316 µM
  IC50: 174 nM
Second compound 0.1 µM
  IC50: 87.5 nM
Second compound 0.316 µM
  IC50: 66.9 nM
Second compound 1 µM
  IC50: < 9.49 nM
Second compound 0.00316 µM, first compound 0.00949 µM
  viability, T/C: 86.6%
Second compound 0.00316 µM, first compound 0.03 µM
  viability, T/C: 74.4%
Second compound 0.00316 µM, first compound 0.0949 µM
  viability, T/C: 95.9%
Second compound 0.00316 µM, first compound 0.3 µM
  viability, T/C: 57.2%
Second compound 0.00316 µM, first compound 0.949 µM
  viability, T/C: 32%
Second compound 0.00316 µM, first compound 3 µM
  viability, T/C: 16.8%
Second compound 0.01 µM, first compound 0.00949 µM
  viability, T/C: 92.2%
Second compound 0.01 µM, first compound 0.03 µM
  viability, T/C: 101%
Second compound 0.01 µM, first compound 0.0949 µM
  viability, T/C: 73%
Second compound 0.01 µM, first compound 0.3 µM
  viability, T/C: 54.4%
Second compound 0.01 µM, first compound 0.949 µM
  viability, T/C: 30%
Second compound 0.01 µM, first compound 3 µM
  viability, T/C: 12.9%
Second compound 0.0316 µM, first compound 0.00949 µM
  viability, T/C: 88.6%
Second compound 0.0316 µM, first compound 0.03 µM
  viability, T/C: 76.3%
Second compound 0.0316 µM, first compound 0.0949 µM
  viability, T/C: 60.1%
Second compound 0.0316 µM, first compound 0.3 µM
  viability, T/C: 42.4%
Second compound 0.0316 µM, first compound 0.949 µM
  viability, T/C: 20.8%
Second compound 0.0316 µM, first compound 3 µM
  viability, T/C: 9.82%
Second compound 0.1 µM, first compound 0.00949 µM
  viability, T/C: 78.7%
Second compound 0.1 µM, first compound 0.03 µM
  viability, T/C: 57.5%
Second compound 0.1 µM, first compound 0.0949 µM
  viability, T/C: 57.5%
Second compound 0.1 µM, first compound 0.3 µM
  viability, T/C: 25.3%
Second compound 0.1 µM, first compound 0.949 µM
  viability, T/C: 17%
Second compound 0.1 µM, first compound 3 µM
  viability, T/C: 8.31%
Second compound 0.316 µM, first compound 0.00949 µM
  viability, T/C: 59.7%
Second compound 0.316 µM, first compound 0.03 µM
  viability, T/C: 59.5%
Second compound 0.316 µM, first compound 0.0949 µM
  viability, T/C: 46.9%
Second compound 0.316 µM, first compound 0.3 µM
  viability, T/C: 23.7%
Second compound 0.316 µM, first compound 0.949 µM
  viability, T/C: 15.7%
Second compound 0.316 µM, first compound 3 µM
  viability, T/C: 5.79%
Second compound 1 µM, first compound 0.00949 µM
  viability, T/C: 44.6%
Second compound 1 µM, first compound 0.03 µM
  viability, T/C: 43%
Second compound 1 µM, first compound 0.0949 µM
  viability, T/C: 34.8%
Second compound 1 µM, first compound 0.3 µM
  viability, T/C: 22.8%
Second compound 1 µM, first compound 0.949 µM
  viability, T/C: 11.5%
Second compound 1 µM, first compound 3 µM
  viability, T/C: 3.12%
